Measured values reported in patent US20230085307A1, “PYRIDAZINONE COMPOUND AND HERBICIDE” (NISSAN CHEMICAL CORPORATION, priority 2019, published 2023).

How the values were obtained:
Japanese bulrush = assay: Test Example 1: herbicidal activity, application before weed generation under submerged conditions (Table 16, symbol B); format: in vivo, Japanese bulrush (Schoenoplectus juncoides)
Summary of the method: (§1)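 Submerged Wagner pots (alluvial soil, 4 cm water) sown with weed seeds and planted with 2.5-leaf rice seedlings; emulsifiable concentrate diluted in water applied to water surface on sowing day. Held in greenhouse at 25-30 °C; injury scored 0-5 by herbicidal rate after three weeks.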

oval-leafed pondweed = assay: Test Example 1: herbicidal activity, application before weed generation under submerged conditions (Table 16, symbol C); format: in vivo, oval-leafed pondweed (Monochoria vaginalis)
Summary of the method: as §1

late watergrass = assay: Test Example 2: herbicidal activity, application during weed generation under submerged conditions (Table 17, symbol A); format: in vivo, late watergrass (Echinochloa oryzicola); conditions: application during weed generation, submerged conditions
Summary of the method: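 Steps: fill Wagner pots with alluvial soil; add water to give 4 cm depth; sow the species mixed; grow under glass at 25–30° C.; at 1–2 leaves apply water-diluted emulsion formulation to the water surface at a fixed herbicide amount; score after 3 weeks.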

barnyard grass [1] = assay: Test Example 3: herbicidal effect by foliage application, Wagner pot (Table 18, symbol H); format: in vivo, barnyard grass (Echinochloa crus-galli)
Summary of the method: (§2)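 Plants were sown in alluvial soil held under 0.1–0.5 cm standing water and grown 14 days in a greenhouse at 25–30 °C. An emulsifiable formulation, water-diluted to the set dose, was then sprayed onto the foliage, and effects were scored three weeks later using previously defined criteria.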

Chinese sprangletop = assay: Test Example 3: herbicidal effect by foliage application, Wagner pot (Table 18, symbol D); format: in vivo, chinese sprangletop (Leptochloa chinensis)
Summary of the method: as §2

rice flat sedge = assay: Test Example 3: herbicidal effect by foliage application, Wagner pot (Table 18, symbol E); format: in vivo, rice flat sedge (Cyperus iria)
Summary of the method: as §2

barnyard grass [2] = assay: Test Example 4: herbicidal effect by soil treatment (Table 19, symbol H); format: in vivo, barnyard grass (Echinochloa crus-galli)
Summary of the method: (§3)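 Three weeks of greenhouse growth at 25° C. to 30° C. followed a uniform surface spray of water-diluted emulsion at a predetermined herbicide amount. Seeds had been sown beforehand under about 1.5 cm of sterilized diluvial soil. Grading followed criteria set out in an earlier test.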

wild oat [3] = assay: Test Example 4: herbicidal effect by soil treatment (Table 19, symbol I); format: in vivo, wild oat (Avena fatua)
Summary of the method: as §3

windgrass [4] = assay: Test Example 4: herbicidal effect by soil treatment (Table 19, symbol L); format: in vivo, windgrass (Apera spica-venti)
Summary of the method: as §3

velvetleaf [5] = assay: Test Example 4: herbicidal effect by soil treatment (Table 19, symbol M); format: in vivo, velvetleaf (Abutilon theophrasti)
Summary of the method: as §3

lambsquarters = assay: Test Example 4: herbicidal effect by soil treatment (Table 19, symbol O); format: in vivo, lambsquarters (Chenopodium album)
Summary of the method: as §3

green foxtail = assay: Test Example 5: herbicidal effect by foliage application, plastic box (Table 20, symbol G); format: in vivo, green foxtail (Setaria viridis); conditions: foliage application, three weeks after application
Summary of the method: (§4)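 Plants sown in sterilized diluvial soil and grown 14 days in a greenhouse at 25° C to 30° C, then sprayed on the foliage with the compound's emulsion diluted in water to a predetermined herbicide amount. Injury to weeds and crops scored three weeks after application on a visual rating scale.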

wild oat [6] = assay: Test Example 5: herbicidal effect by foliage application, plastic box (Table 20, symbol I); format: in vivo, wild oat (Avena fatua); conditions: foliage application, three weeks after application
Summary of the method: as §4

blackgrass = assay: Test Example 5: herbicidal effect by foliage application, plastic box (Table 20, symbol J); format: in vivo, blackgrass (Alopecurus myosuroides); conditions: foliage application, three weeks after application
Summary of the method: as §4

windgrass [7] = assay: Test Example 5: herbicidal effect by foliage application, plastic box (Table 20, symbol L); format: in vivo, windgrass (Apera spica-venti); conditions: foliage application, three weeks after application
Summary of the method: as §4

velvetleaf [8] = assay: Test Example 5: herbicidal effect by foliage application, plastic box (Table 20, symbol M); format: in vivo, velvetleaf (Abutilon theophrasti); conditions: foliage application, three weeks after application
Summary of the method: as §4

chickweed = assay: Test Example 5: herbicidal effect by foliage application, plastic box (Table 20, symbol P); format: in vivo, common chickweed (Stellaria media); conditions: foliage application, three weeks after application
Summary of the method: as §4

Cc1nn(C)c(=O)c(-c2c(-c3ccc(OCC4CC4)cc3)sc3ccccc23)c1O [1-142]
Herbicidal effect on B: Japanese bulrush (grade 0-5) (Japanese bulrush; 320 g/ha applied herbicide): 5 (Herbicidal rate of 90% or more (almost completely withered)) | Herbicidal effect on C: oval-leafed pondweed (grade 0-5) (oval-leafed pondweed; 320 g/ha applied herbicide): 5 (Herbicidal rate of 90% or more (almost completely withered)) | herbicidal effect rating, A: late watergrass (late watergrass; AAH 320 g/ha): 0 (Herbicidal rate of 5% or less (almost no effect)) | herbicidal effect on H (barnyard grass), rating 0-5 (barnyard grass [1]; 320 g/ha): 3 (Herbicidal rate of 40% or more and less than 70%) | herbicidal effect on D (Chinese sprangletop), rating 0-5 (Chinese sprangletop; 320 g/ha): 1 (Herbicidal rate of 5% or more and less than 20%) | herbicidal effect on E (rice flat sedge), rating 0-5 (rice flat sedge; 320 g/ha): 5 (Herbicidal rate of 90% or more (almost completely withered)) | H: barnyard grass, herbicidal effect rating (barnyard grass [2]; AAH 320 g/ha): 3 (Herbicidal rate of 40% or more and less than 70%) | I: wild oat, herbicidal effect rating (wild oat [3]; AAH 320 g/ha): 0 (Herbicidal rate of 5% or less (almost no effect)) | L: windgrass, herbicidal effect rating (windgrass [4]; AAH 320 g/ha): 0 (Herbicidal rate of 5% or less (almost no effect)) | M: velvetleaf, herbicidal effect rating (velvetleaf [5]; AAH 320 g/ha): 3 (Herbicidal rate of 40% or more and less than 70%) | O: lambsquarters, herbicidal effect rating (lambsquarters; AAH 320 g/ha): 5 (Herbicidal rate of 90% or more (almost completely withered)) | G: green foxtail, herbicidal effect (green foxtail; AAH 320 g/ha): 2 (Herbicidal rate of 20% or more and less than 40%) | I: wild oat, herbicidal effect (wild oat [6]; AAH 320 g/ha): 0 (Herbicidal rate of 5% or less (almost no effect)) | J: blackgrass, herbicidal effect (blackgrass; AAH 320 g/ha): 0 (Herbicidal rate of 5% or less (almost no effect)) | L: windgrass, herbicidal effect (windgrass [7]; AAH 320 g/ha): 1 (Herbicidal rate of 5% or more and less than 20%) | M: velvetleaf, herbicidal effect (velvetleaf [8]; AAH 320 g/ha): 1 (Herbicidal rate of 5% or more and less than 20%) | P: chickweed, herbicidal effect (chickweed; AAH 320 g/ha): 5 (Herbicidal rate of 90% or more (almost completely withered))

COCCOc1ccc(-c2sc3ccccc3c2-c2c(O)c(C)nn(C)c2=O)cc1 [1-148]
Herbicidal effect on B: Japanese bulrush (grade 0-5) (Japanese bulrush; 368 g/ha applied herbicide): 3 (Herbicidal rate of 40% or more and less than 70%) | Herbicidal effect on C: oval-leafed pondweed (grade 0-5) (oval-leafed pondweed; 368 g/ha applied herbicide): 3 (Herbicidal rate of 40% or more and less than 70%) | herbicidal effect rating, A: late watergrass (late watergrass; AAH 368 g/ha): 3 (Herbicidal rate of 40% or more and less than 70%) | herbicidal effect on H (barnyard grass), rating 0-5 (barnyard grass [1]; 368 g/ha): 5 (Herbicidal rate of 90% or more (almost completely withered)) | herbicidal effect on D (Chinese sprangletop), rating 0-5 (Chinese sprangletop; 368 g/ha): 4 (Herbicidal rate of 70% or more and less than 90%) | herbicidal effect on E (rice flat sedge), rating 0-5 (rice flat sedge; 368 g/ha): 5 (Herbicidal rate of 90% or more (almost completely withered)) | H: barnyard grass, herbicidal effect rating (barnyard grass [2]; AAH 368 g/ha): 5 (Herbicidal rate of 90% or more (almost completely withered)) | I: wild oat, herbicidal effect rating (wild oat [3]; AAH 368 g/ha): 2 (Herbicidal rate of 20% or more and less than 40%) | L: windgrass, herbicidal effect rating (windgrass [4]; AAH 368 g/ha): 0 (Herbicidal rate of 5% or less (almost no effect)) | M: velvetleaf, herbicidal effect rating (velvetleaf [5]; AAH 368 g/ha): 4 (Herbicidal rate of 70% or more and less than 90%) | O: lambsquarters, herbicidal effect rating (lambsquarters; AAH 368 g/ha): 5 (Herbicidal rate of 90% or more (almost completely withered)) | G: green foxtail, herbicidal effect (green foxtail; AAH 368 g/ha): 5 (Herbicidal rate of 90% or more (almost completely withered)) | I: wild oat, herbicidal effect (wild oat [6]; AAH 368 g/ha): 4 (Herbicidal rate of 70% or more and less than 90%) | J: blackgrass, herbicidal effect (blackgrass; AAH 368 g/ha): 4 (Herbicidal rate of 70% or more and less than 90%) | L: windgrass, herbicidal effect (windgrass [7]; AAH 368 g/ha): 4 (Herbicidal rate of 70% or more and less than 90%) | M: velvetleaf, herbicidal effect (velvetleaf [8]; AAH 368 g/ha): 5 (Herbicidal rate of 90% or more (almost completely withered)) | P: chickweed, herbicidal effect (chickweed; AAH 368 g/ha): 5 (Herbicidal rate of 90% or more (almost completely withered))
